Values of other authors as cited in patent publication US20080213433A1, “Fluid compositions comprising polyphenols and methods for making and packaging the same” (priority 2006, published 2008).

What was measured:
SIRT1 = biological target: T1, SIRT1 (Homo sapiens, UniProt Q96EB6); conditions: sirtuin enzyme; cis-isomer compared to trans-resveratrol
T1 sequence (Q96EB6 1-747): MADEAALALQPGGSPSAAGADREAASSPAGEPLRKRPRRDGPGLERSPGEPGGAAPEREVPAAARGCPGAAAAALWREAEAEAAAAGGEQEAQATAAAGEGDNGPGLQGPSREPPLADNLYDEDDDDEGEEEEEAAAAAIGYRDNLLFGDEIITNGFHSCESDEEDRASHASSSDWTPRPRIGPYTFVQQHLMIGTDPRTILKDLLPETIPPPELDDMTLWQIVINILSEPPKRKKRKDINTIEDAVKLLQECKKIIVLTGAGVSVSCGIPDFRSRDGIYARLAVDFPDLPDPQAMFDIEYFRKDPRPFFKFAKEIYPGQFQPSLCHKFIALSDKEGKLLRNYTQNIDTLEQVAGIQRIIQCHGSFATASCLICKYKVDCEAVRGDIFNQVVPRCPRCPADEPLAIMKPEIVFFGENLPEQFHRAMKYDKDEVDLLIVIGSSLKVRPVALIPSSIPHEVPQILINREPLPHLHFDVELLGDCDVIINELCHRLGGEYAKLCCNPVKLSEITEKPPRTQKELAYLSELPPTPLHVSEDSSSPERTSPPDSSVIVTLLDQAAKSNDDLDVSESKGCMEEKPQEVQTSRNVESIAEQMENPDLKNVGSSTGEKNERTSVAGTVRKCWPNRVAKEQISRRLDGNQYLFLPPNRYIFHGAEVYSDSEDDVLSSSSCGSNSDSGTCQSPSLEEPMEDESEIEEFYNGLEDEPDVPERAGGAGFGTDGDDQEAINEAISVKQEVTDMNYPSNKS

[1] = β-glucosidases in the human intestines hydrolyze piceid and release free trans-resveratrol

| Compound | stimulation / activation of SIRT1 (SIRT1) | bioavailability of trans-resveratrol derived from the β-glucosidic form vs the free form in solution [1] |
| --- | --- | --- |
| Oc1ccc(/C=C\c2cc(O)cc(O)c2)cc1 [Cis-resveratrol] | considerably less efficacy |  |
| Oc1ccc(/C=C/c2cc(O)cc(O)c2)cc1 [Trans-resveratrol] | stimulate |  |
| OCC1OC(Oc2cc(O)cc(/C=C/c3ccc(O)cc3)c2)C(O)C(O)C1O (stereo not drawn) [piceid, 2-[3-hydroxy-5-[(E)-2-(4-hydroxyphenyl)ethenyl]phenoxy]-6-(hydroxymethyl)oxane-3,4,5-triol] |  | equivalent |
